# Target: human ACC2 (Homo sapiens (Human), UniProt O00763)
# Assay: ACC2 assay, spectrophotometric 384 well assay (NADH-linked kinetic method)
# Format: biochemical
# Details: human ACC2 construct lacking the 128 N-terminal amino acids; coupled lactate dehydrogenase/pyruvate kinase reaction, 340 nm, 25° C.
# Experimental: Spectrophotometric 384 Well Assay
# Malonyl CoA formation by acetyl CoA carboxylases is stoichometrically linked to the consumption of ATP. ACC2 activity is measured in a NADH-linked kinetic method measuring ADP generated during the ACC reaction using a coupled lactate dehydrogenase/pyruvate kinase reaction.
# For biological testing, a human ACC2 construct which lacks the 128 amino acids at the N-terminus for increased solubility (nt 385-6966 in Genbank entry AJ575592) is cloned. The protein is then expressed in insect cells using a baculoviral expression system. Protein purification is performed by anion exchange.
# All compounds are dissolved in dimethyl sulfoxide (DMSO) to a concentration of 10 mM.
# The enzymatic reaction is then started by addition of a mixture of NADH, acetyl Coenzyme A (both 2000 μM f.c.) and ATP (500 uM f.c.). The decrease of the optical density (slope S) is then determined at 25° C. at a wavelength of 340 nm over 15 minutes in a spectrophotometric reader.
# Each assay microtiter plate contains wells with vehicle instead of compound as controls for the non-inhibited enzyme (100% CTL; ‘HIGH’) and wells without acetyl-CoA as controls for non-specific NADH degradation (0% CTL; ‘LOW’).
# The slope S is used for calculation of % CTL=(S(compound)−S(‘LOW’))/(S(‘HIGH’)−S(‘LOW’))*100.
# For IC50 value determination, the sample slope in the presence of the test compound after subtraction of the low controls (S(compound)−S(‘LOW’)) are used.
# An IC50 value is derived from the compound slopes at different dosages after subtraction of the low controls (S(compound)−S(‘LOW’)) by non-linear regression curve fitting (equation y=(A+((B−A)/(1+((C/x)^D))))).
# human ACC2, sequence (O00763 129-2458): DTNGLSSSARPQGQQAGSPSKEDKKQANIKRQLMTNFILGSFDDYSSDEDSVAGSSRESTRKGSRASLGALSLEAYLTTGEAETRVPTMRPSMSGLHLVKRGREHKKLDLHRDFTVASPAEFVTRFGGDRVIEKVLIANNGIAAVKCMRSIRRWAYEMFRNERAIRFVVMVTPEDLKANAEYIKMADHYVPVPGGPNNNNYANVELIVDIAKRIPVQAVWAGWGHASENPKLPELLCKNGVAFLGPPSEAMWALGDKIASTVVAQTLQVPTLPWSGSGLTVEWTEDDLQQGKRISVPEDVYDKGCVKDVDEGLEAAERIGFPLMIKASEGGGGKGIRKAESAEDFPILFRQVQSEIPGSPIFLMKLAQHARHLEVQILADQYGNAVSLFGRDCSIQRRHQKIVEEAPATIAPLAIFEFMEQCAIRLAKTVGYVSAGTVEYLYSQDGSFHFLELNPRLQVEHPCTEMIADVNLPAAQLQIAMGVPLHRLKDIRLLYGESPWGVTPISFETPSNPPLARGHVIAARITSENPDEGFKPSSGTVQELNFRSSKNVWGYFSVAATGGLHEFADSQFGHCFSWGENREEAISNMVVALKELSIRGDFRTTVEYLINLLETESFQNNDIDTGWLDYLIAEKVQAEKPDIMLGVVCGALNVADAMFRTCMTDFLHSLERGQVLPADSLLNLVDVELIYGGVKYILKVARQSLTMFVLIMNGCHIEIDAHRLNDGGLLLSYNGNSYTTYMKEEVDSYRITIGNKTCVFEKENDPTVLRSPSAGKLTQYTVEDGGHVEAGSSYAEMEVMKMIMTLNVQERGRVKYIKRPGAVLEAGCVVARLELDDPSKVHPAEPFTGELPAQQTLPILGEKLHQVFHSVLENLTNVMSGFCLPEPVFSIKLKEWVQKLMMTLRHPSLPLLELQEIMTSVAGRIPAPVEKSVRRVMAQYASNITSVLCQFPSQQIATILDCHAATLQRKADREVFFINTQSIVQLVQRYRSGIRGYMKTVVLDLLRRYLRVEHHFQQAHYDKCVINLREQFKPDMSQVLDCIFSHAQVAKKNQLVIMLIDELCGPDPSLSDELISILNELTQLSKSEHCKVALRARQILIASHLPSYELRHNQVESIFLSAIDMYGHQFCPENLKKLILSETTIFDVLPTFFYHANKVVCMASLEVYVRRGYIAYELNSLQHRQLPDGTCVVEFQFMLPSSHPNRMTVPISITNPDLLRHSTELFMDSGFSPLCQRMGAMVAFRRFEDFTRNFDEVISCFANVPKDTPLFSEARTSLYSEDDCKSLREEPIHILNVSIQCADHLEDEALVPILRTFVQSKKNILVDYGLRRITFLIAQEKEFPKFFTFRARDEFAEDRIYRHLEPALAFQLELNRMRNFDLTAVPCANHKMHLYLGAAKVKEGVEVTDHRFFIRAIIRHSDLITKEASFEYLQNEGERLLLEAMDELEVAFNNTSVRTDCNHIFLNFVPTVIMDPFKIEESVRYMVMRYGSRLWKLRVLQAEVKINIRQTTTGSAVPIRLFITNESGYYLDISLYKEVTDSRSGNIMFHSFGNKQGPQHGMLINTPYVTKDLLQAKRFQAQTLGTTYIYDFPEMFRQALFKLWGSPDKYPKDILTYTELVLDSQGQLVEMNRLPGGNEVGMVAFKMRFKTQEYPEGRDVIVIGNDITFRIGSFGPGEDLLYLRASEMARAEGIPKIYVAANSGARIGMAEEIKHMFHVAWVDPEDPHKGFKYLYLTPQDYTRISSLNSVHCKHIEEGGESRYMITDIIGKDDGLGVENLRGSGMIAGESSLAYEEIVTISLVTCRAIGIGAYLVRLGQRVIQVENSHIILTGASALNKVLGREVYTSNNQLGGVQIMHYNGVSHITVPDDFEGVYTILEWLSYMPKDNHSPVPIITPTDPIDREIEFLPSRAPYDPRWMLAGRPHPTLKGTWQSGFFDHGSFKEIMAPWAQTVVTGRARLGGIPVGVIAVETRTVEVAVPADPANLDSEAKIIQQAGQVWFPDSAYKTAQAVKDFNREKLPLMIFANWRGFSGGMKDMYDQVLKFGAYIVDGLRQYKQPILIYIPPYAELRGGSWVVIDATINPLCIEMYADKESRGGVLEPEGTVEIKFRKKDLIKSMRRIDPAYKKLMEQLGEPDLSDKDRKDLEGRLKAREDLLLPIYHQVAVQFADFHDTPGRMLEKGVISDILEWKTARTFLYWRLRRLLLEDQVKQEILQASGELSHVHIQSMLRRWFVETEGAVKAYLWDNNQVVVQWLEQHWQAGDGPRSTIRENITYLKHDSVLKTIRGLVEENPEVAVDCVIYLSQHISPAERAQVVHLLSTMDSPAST
row,Compound,IC50 [nM]
1,CCCOc1cc(N2CCC(Oc3ccc([C@H](C)NC(C)=O)cc3)C2)c(C)cn1 (some centres unmarked) [Example 1.90],379
2,CC(=O)N[C@@H](C)c1ccc(OC2CCN(c3ccc(OCC(C)(F)F)cn3)C2)cc1 (some centres unmarked) [Example 1.91],661
3,CC(=O)N[C@@H](C)c1ccc(OC2CCN(c3cc(OCC(F)F)ncc3C)C2)cc1 (some centres unmarked) [Example 1.92],524
4,CC(=O)N[C@@H](C)c1ccc(OC2CCN(c3ccc(OCCC(F)F)cn3)C2)cc1 (some centres unmarked) [Example 1.93],107
5,CC(=O)N[C@@H](C)c1ccc(OC2CN(c3ccc(OCC4CC4(F)F)cn3)C[C@H]2F)cc1 (some centres unmarked) [Example 1.94],94
6,CCOc1nccc(N2CC[C@@H](Oc3ccc([C@H](C)NC(C)=O)cc3)C2)c1OC [Example 1.95],82
7,CC(=O)N[C@@H](C)c1ccc(O[C@@H]2CCN(c3ccc(OCC4CC4)cn3)C2)cc1 [Example 1.96],114
8,CCN(C)c1ccnc(N2CC[C@@H](Oc3ccc([C@H](C)NC(C)=O)cc3)C2)c1F [Example 1.97],970
9,CC(=O)N[C@@H](C)c1ccc(O[C@@H]2CCN(c3nccc(N(C)C)c3F)C2)cc1 [Example 1.98],967
10,CC(=O)N[C@@H](C)c1ccc(O[C@@H]2CCN(c3nccc(N4CCCC4)c3F)C2)cc1 [Example 1.99],201
11,CC(=O)N[C@@H](C)c1ccc(O[C@@H]2CCN(c3nccc(N(C)CC4CC4)c3F)C2)cc1 [Example 1.100],385
12,CC(=O)N[C@@H](C)c1ccc(O[C@@H]2CCN(c3ccnc(N4CCC4)c3F)C2)cc1 [Example 1.101],92
13,CC(=O)N[C@@H](C)c1ccc(O[C@@H]2CCN(c3ccnc(N4CCCCC4)c3F)C2)cc1 [Example 1.102],61
14,CCCN(C)c1nccc(N2CC[C@@H](Oc3ccc([C@H](C)NC(C)=O)cc3)C2)c1F [Example 1.103],70
15,CC(=O)N[C@@H](C)c1ccc(O[C@@H]2CCN(c3ccnc(N4CCC5(CC5)C4)c3F)C2)cc1 [Example 1.104],24
16,CC(=O)N[C@@H](C)c1ccc(O[C@@H]2CCN(c3ccnc(N4CC(F)(F)C4)c3F)C2)cc1 [Example 1.105],59
17,COCCN(C)c1nccc(N2CC[C@@H](Oc3ccc([C@H](C)NC(C)=O)cc3)C2)c1F [Example 1.106],69
18,CCCNc1nccc(N2CC[C@@H](Oc3ccc([C@H](C)NC(C)=O)cc3)C2)c1F [Example 1.107],52
19,CC(=O)N[C@@H](C)c1ccc(O[C@@H]2CCN(c3ccnc(N(C)CC(F)F)c3F)C2)cc1 [Example 1.108],42
20,COC1CN(c2nccc(N3CC[C@@H](Oc4ccc([C@H](C)NC(C)=O)cc4)C3)c2F)C1 [Example 1.109],155

row,Compound,IC50 [nM]
1,CC(=O)N[C@@H](C)c1ccc(O[C@@H]2CCN(c3ccnc(N4CCC(F)(F)C4)c3F)C2)cc1 [Example 1.110],23
2,CC(=O)N[C@@H](C)c1ccc(O[C@@H]2CCN(c3ccnc(N(C)C(C)C)c3F)C2)cc1 [Example 1.111],112
3,CC(=O)N[C@@H](C)c1ccc(O[C@@H]2CCN(c3ccnc(N(C)CC(F)(F)F)c3F)C2)cc1 [Example 1.112],68
4,CC(=O)N[C@@H](C)c1ccc(O[C@@H]2CCN(c3ccnc(NC4CCCC4)c3F)C2)cc1 [Example 1.113],163
5,CC(=O)N[C@@H](C)c1ccc(O[C@@H]2CCN(c3ccnc(NCC4CC4)c3F)C2)cc1 [Example 1.114],43
6,CCNc1nccc(N2CC[C@@H](Oc3ccc([C@H](C)NC(C)=O)cc3)C2)c1F [Example 1.115],260
7,CC(=O)N[C@@H](C)c1ccc(O[C@@H]2CCN(c3ccnc(NCC(F)F)c3F)C2)cc1 [Example 1.116],177
8,CC(=O)N[C@@H](C)c1ccc(O[C@@H]2CCN(c3ccc(OC[C@@H]4CC4(F)F)cn3)C2)cc1 [Example 1.117],753
9,CC(=O)N[C@@H](C)c1ccc(O[C@@H]2CCN(c3ccc(OC[C@H]4CC4(F)F)cn3)C2)cc1 [Example 1.118],39
10,COCCNc1nccc(N2CC[C@@H](Oc3ccc([C@H](C)NC(C)=O)cc3)C2)c1F [Example 1.119],1330
11,COc1c(N2CC[C@@H](Oc3ccc([C@H](C)NC(C)=O)cc3)C2)ccnc1OCC(C)C [Example 1.120],32
12,CCCOc1nccc(N2CC[C@@H](Oc3ccc([C@H](C)NC(C)=O)cc3)C2)c1OC [Example 1.121],41
13,COc1cc(N2CC[C@@H](Oc3ccc([C@H](C)NC(C)=O)cc3)C2)cnc1OCC1CC1 [Example 1.122],2710
14,CC(=O)N[C@@H](C)c1ccc(O[C@@H]2CCN(c3ccc(OCC4CC(F)(F)C4)cn3)C2)cc1 [Example 1.123],228
15,CC(=O)N[C@@H](C)c1ccc(O[C@@H]2CCN(c3ccnc(N4CCC(F)(F)C4)c3C)C2)cc1 [Example 1.124],76
16,CC(=O)N[C@@H](C)c1ccc(O[C@@H]2CCN(c3ccnc(N4CCCC4)c3C)C2)cc1 [Example 1.125],402
17,CC(=O)N[C@@H](C)c1ccc(O[C@@H]2CCN(c3ccnc(N4CCC4)c3C)C2)cc1 [Example 1.126],597
18,COc1c(N2CC[C@@H](Oc3ccc([C@H](C)NC(C)=O)cc3)C2)ccnc1OCC1CC1 [Example 1.127],31
19,CCOc1ccc(N2CC[C@@H](Oc3ccc([C@H](C)NC(C)=O)cc3)C2)c(OC)n1 [Example 1.128],360
20,CCCN(C)c1nccc(N2CC[C@@H](Oc3ccc([C@H](C)NC(C)=O)cc3)C2)c1OC [Example 1.129],210

# Other lines, results leading:
row,IC50 [nM],Compound
1,233,CCCOc1ccc(N2CC[C@@H](Oc3ccc([C@H](C)NC(C)=O)cc3)C2)c(OC)n1 [Example 1.130]
2,76,CC(=O)N[C@@H](C)c1ccc(O[C@@H]2CCN(c3ccnc(N4CCC4)c3Cl)C2)cc1 [Example 1.131]
3,41,CC(=O)N[C@@H](C)c1ccc(O[C@@H]2CCN(c3ccnc(N4CCC(F)(F)C4)c3Cl)C2)cc1 [Example 1.132]
4,246,CC(=O)N[C@@H](C)c1ccc(O[C@@H]2CCN(c3cccc(N(C)CC(F)F)n3)C2)cc1 [Example 1.133]
5,102,CC(=O)N[C@@H](C)c1ccc(O[C@@H]2CCN(c3cccc(N(C)C4CCC4)n3)C2)cc1 [Example 1.134]
6,62,CCCNc1nccc(N2CC[C@@H](Oc3ccc([C@H](C)NC(C)=O)cc3)C2)c1Cl [Example 1.135]
7,476,COc1c(N2CC[C@@H](Oc3ccc([C@H](C)NC(C)=O)cc3)C2)ccnc1N1CCCC1 [Example 1.136]
8,633,COc1c(N2CC[C@@H](Oc3ccc([C@H](C)NC(C)=O)cc3)C2)ccnc1N(C)C [Example 1.137]
9,26,CC(=O)N[C@@H](C)c1ccc(O[C@@H]2CCN(c3ccnc(NCC4CC4)c3Cl)C2)cc1 [Example 1.138]
10,37,COc1c(N2CC[C@@H](Oc3ccc([C@H](C)NC(C)=O)cc3)C2)ccnc1OCCC1CC1 [Example 1.139]
11,65,CCC(=O)Nc1nc(C)c(C(=O)N[C@@H](C)c2ccc(O[C@@H]3CCN(c4ccnc(NCC5CC5)c4Cl)C3)cc2)s1 [Example 1.140]
12,421,CCC(=O)Nc1nc(C)c(C(=O)N[C@@H](C)c2ccc(O[C@@H]3CCN(c4ccnc(NCC(F)F)c4F)C3)cc2)s1 [Example 1.141]
13,67,CCC(=O)Nc1nc(C)c(C(=O)N[C@@H](C)c2ccc(O[C@@H]3CCN(c4ccnc(NCC5CC5)c4F)C3)cc2)s1 [Example 1.142]
14,116,CCC(=O)Nc1nc(C)c(C(=O)N[C@@H](C)c2ccc(O[C@@H]3CCN(c4ccnc(NCC(F)F)c4Cl)C3)cc2)s1 [Example 1.143]
15,93,CCC(=O)Nc1nc(C)c(C(=O)N[C@@H](C)c2ccc(O[C@@H]3CCN(c4ccc(OC[C@H]5CC5(F)F)cn4)C3)cc2)s1 [Example 1.144]
16,995,CCC(=O)Nc1nc(C)c(C(=O)N[C@@H](C)c2ccc(O[C@@H]3CCN(c4ccc(OC[C@@H]5CC5(F)F)cn4)C3)cc2)s1 [Example 1.145]
17,109,COc1c(N2CC[C@@H](Oc3ccc([C@H](C)NC(C)=O)cc3)C2)ccnc1N1CCC(F)(F)C1 [Example 1.146]
18,47,CC(=O)N[C@@H](C)c1ccc(O[C@@H]2CCN(c3ccnc(N4CCCC4)c3Cl)C2)cc1 [Example 1.148]
19,156,COc1c(N2CC[C@@H](Oc3ccc([C@H](C)NC(C)=O)cc3)C2)ccnc1OCC(C)(C)OC [Example 1.149]
20,69,COc1c(N2CC[C@@H](Oc3ccc([C@H](C)NC(C)=O)cc3)C2)ccnc1OC(C)C [Example 1.150]
21,504,COc1c(N2CC[C@@H](Oc3ccc([C@H](C)NC(C)=O)cc3)C2)ccnc1OCC(C)(C)O [Example 1.151]
22,25,"CC(=O)Nc1nc(C)c(C(=O)N[C@@H](C)c2ccc(O[C@@H]3CCN(c4ccc(OCC5CC5(F)F)cn4)C3)cc2)s1 (stereo partly drawn) [Example 2.1, 2-Acetamido-N—((1S)-1-(4-((3R)-1-(5-((2,2-difluorocyclopropyl)methoxy)pyridin-2-yl)pyrrolidin-3-yloxy)phenyl)ethyl)-4-methylthiazole-5-carboxamide]"

# — patent publication US8877741B2, “Pyrrolidine derivatives, pharmaceutical compositions and uses thereof” (Boehringer Ingelheim International GmbH, priority 2013, dated 2014)
